Publication PMC9965520, “An Efficient Peptidomics Screening for Exogenous Substrates and Inhibitory Peptides of the Dipeptidase ACE from Milk Hydrolysate” (Pharmaceutics, 2023)
No end group written: not given here.

Legend:
[1] = molecular target: T1, ACE (Oryctolagus cuniculus, UniProt P12822); assay: ACE hydrolysis of synthetic substrate candidates monitored by LC-MS at different incubation times; assay type: in vitro ADME, rabbit; design: ACE (EC 3.4.15.1, 1 unit) from rabbit lungs; purchased Sigma Chemical Co. (St. Louis, MO, USA); host or cells: rabbit lungs (tissue-derived enzyme); conditions: synthetic peptide incubated with ACE, 37 °C, 3 h, LC-MS/MS
T1 sequence (P12822 34-1310): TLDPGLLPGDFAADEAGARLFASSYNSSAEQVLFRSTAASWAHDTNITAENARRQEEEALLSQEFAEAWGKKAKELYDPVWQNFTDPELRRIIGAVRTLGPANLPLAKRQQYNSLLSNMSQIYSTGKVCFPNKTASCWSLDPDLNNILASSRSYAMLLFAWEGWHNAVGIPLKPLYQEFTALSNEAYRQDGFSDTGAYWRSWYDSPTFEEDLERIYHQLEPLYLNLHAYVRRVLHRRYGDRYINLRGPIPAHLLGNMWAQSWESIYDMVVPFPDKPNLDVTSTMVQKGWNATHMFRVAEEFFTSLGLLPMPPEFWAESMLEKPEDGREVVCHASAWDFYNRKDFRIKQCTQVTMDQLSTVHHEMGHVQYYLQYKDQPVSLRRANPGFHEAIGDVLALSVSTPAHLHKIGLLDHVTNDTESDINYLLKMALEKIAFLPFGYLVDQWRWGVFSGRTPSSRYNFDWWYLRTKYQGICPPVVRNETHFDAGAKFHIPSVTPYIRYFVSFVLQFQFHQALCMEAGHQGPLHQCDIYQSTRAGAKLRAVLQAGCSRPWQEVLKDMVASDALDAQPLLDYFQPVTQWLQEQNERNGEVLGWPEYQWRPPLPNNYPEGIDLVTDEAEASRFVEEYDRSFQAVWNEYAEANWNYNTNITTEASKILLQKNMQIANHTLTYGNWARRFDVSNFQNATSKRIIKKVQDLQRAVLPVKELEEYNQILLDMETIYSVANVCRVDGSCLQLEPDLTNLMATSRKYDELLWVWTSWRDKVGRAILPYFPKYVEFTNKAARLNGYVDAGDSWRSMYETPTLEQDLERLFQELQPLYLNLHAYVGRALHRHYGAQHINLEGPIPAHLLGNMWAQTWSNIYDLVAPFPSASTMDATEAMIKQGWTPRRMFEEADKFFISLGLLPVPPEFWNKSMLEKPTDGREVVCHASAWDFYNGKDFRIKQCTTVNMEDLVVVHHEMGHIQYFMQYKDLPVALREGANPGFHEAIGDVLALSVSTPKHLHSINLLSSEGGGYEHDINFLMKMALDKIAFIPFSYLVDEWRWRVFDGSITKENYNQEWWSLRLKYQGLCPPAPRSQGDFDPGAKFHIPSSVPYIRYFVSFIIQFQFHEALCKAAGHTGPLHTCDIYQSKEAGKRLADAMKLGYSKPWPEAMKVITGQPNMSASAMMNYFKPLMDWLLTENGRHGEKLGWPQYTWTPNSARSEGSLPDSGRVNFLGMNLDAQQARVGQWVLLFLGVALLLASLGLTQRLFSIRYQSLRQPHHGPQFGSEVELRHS
Protocol: To confirm the reactivity of the identified peptide candidates towards ACE, the synthetic peptides were individually mixed with ACE and incubated at 37 °C for 3 h. The remaining peptide substrate and the resulting product were analyzed using LC-MS/MS. Meanwhile, the degradation rate of each peptide was monitored every 30 min using LC-MS. The percentage of the remaining substrate (RS%) at each time point was calculated as As/(As + Ap) 100%. In which, As is the selective ion chromatogram (SIC) peak area of remaining substrate and Ap is the peak area of the resulting product. The RS% was further compared with the D/H ratio obtained in Section 2.4.

[2] = molecular target: T1, ACE; assay: ACE pre-incubation of milk hydrolysate peptide libraries, stable-isotope dimethyl labeling and LC-MS/MS (D/H ratio); assay type: in vitro ADME, rabbit; design: ACE (EC 3.4.15.1, 1 unit) from rabbit lungs; purchased Sigma Chemical Co. (St. Louis, MO, USA); host or cells: rabbit lungs (tissue-derived enzyme); conditions: milk hydrolysate peptide library (<3 kDa); ACE-treated (0.05 mU/μL ACE, borate buffer, 37 °C, 3 h: 1.5 h static + 1.5 h 200 rpm; D-labeled) versus untreated (H-labeled) peptide; intensity ratio in LC-MS; <1 = hydrolysed by ACE
Protocol: The peptide libraries (200 μg) dissolved in borate buffer were equally divided into two parts, one was without any treatment (control group); the other part (experimental group) was incubated with 0.05 mU/μL ACE at 37℃ for 1.5 h statically, followed by gentle shaking at 200 rpm for another 1.5 h, and then the ACE reaction was quenched using 60 μL of 1N HCl. After lyophilization, both samples were redissolved in 100 μL of 0.1M sodium acetate and modified using stable-isotope dimethyl labeling according to the previous study with slight modifications. Briefly, the control group (without ACE incubation) had 4 μL of formaldehyde (37% solution in H2O) and 1 M NaBH3CN (10 μL) added to it; the experimental group had 20% formaldehyde-d2 (8 μL) and 1M NaBH3CN (10 μL) added to it. After 1h, 5 μL of ammonia (28% solution in H2O) were added individually to both groups to stop the reaction. The experimental group and the control group were combined and desalted using the PepClean™C18 spin column. The resulting peptide mixture was lyophilized and kept at −20 °C prior to LC-MS/MS analysis. Formaldehyde is known to the state of California to cause cancer; special caution was taken including the use of surgical gloves and a fume hood when formaldehyde was handled.
The combined mixture re-dissolved in 5% ACN containing 0.1% formic acid was separated using an Ultimate 3000 RSLC system (Dionex, Sunnyvale, CA, USA) coupled with a C18 column (Acclaim PepMap RSLC, 75 μm × 150 mm, Thermo Scientific, Waltham, Middlesex, MA, USA) and analyzed with a Thermo Q-ExactiveTM mass spectrometer (Thermo Scientific Inc., Waltham, Middlesex, MA, USA). The elution solution was composed of mobile phase A (0.1% formic acid in water) and B (0.1% formic acid in 95% acetonitrile). The elution gradient was arranged as follows: (i) isocratic elution using 1% B in the first 5.5 min for sample loading, (ii) linear gradient from 1% to 60% B in the next 39.5 min, (iii) linear gradient from 60% to 80% B in the following 10 min, and finally (iv) isocratic elution using 1% solution B for 10 min. The flow rate applied in the LC separation was maintained at 250 µL/min. The separated peptides were analyzed and quantified using Q-ExactiveTM mass spectrometry which was operated in the data-dependent mode and switched automatically between MS and HCD-MS2. A full MS scan was carried out in a 100 and 1500 m/z range, and the 14 ions of the highest intensities were selected for MS/MS scans. The RAW data were converted to the MGF file format followed by database-assisted sequencing with PEAKS DB using PEAKS Studio X (Bioinformatics Solutions Inc., Waterloo, ON, Canada). The parameters used for peptide identification were listed as follows: (1) Database: UniProt_SwissProt (Bos taurus); (2) Enzyme: pepsin, trypsin, α-chymotrypsin, or GI (the combination of these three proteases); (3) Type of enzyme: Unspecific; (4) Instrument: Orbitrap; (5) Parent mass error tolerance: 20 ppm; (6) Fragment mass error tolerance: 0.6 Da; (7) Variable modifications: Dimethyl (K), Dimethyl (N-term), Dimethyl:2H(4) (K), and Dimethyl:2H(4) (N-term) were used for identification and quantitative analysis. The sequence identified through the database was validated by manually matching with the MS/MS spectrum in the raw data. In addition to MS/MS analysis coupled with PEAKS studio, the ACE’s substrate candidates were further confirmed using the synthetic peptides with corresponding sequences by comparison with their LC retention times, m/z values, and MS/MS spectra. The relative abundances of hydrogen (H) and deuterium (D) labeled peptides were quantified based on the peak areas in their corresponding selective ion chromatograms (SIC). The D/H ratio of identified peptide with the same sequence was further examined by their relative signal intensities in MS spectrum. Theoretically, the D/H ratio of the isobaric pair should stay at 1 if the peptide will not react with ACE. […]

[3] = molecular target: T1, ACE; conditions: pH 8.3
Protocol: To a mixture of Ang-I (1 μg) and peptide substrate (1 μg) in 50 µL of borate buffe (200 mM borate buffer, 300 mM NaCl, pH 8.3), 20 µL of ACE (0.05 mU/µL) was added. The mixture was incubated at 37 °C and monitored using LC-MS/MS at 1, 2, 3, 4, 6, and 10 h. The LC separation was performed on Syncronis C18 column (150 mm × 2.1 mm, 5 µm, Thermo Scientific) and eluted with the mobile phase A (5% ACN and 0.1% FA) and B (95% ACN and 0.1% FA) at a flow rate of 350 µL/min. The elution gradient was programmed as (i) 0–5 min, isocratic elution with 5% B; (ii) 5–20 min, linear gradient from 5% to 55% B; (iii) 20–22 min, linear gradient from 55% to 80% solution B; and finally (iv) 22–30 min, isocratic elution maintained at 80% solution B. The degradation of Ang-I and the formation of Ang-II were analyzed using selective ion chromatogram (SIC) on a triple quadrupole mass analyzer (TSQ, Thermo Scientific). The percentage of the remaining angiotensin I (RA%) at each time point was calculated as AI/(AI + AII) × 100%, where AI is the SIC peak area of remaining Ang-I and AII is the peak area of the resulting Ang-II.

[4] = system: ACE; conditions: 3 h of incubation with ACE; ref 21 (Forghani et al.); cited from earlier work
Protocol: To investigate the sequence conservation of the exogenous substrates, the identified substrates listed on Table 1 were analyzed using Weblogo (https://weblogo.berkeley.edu/). WebLogo is the software designed to analyze the frequency of residues that appeared at various positions in a sequence library. The font size of each letter (residue) represents the frequency appearance of each residue at a certain position. The order from the most frequent to the least frequent is arranged from the top to the bottom for each residue. The chemical properties of amino acid residues are classified by ...

D/H Ratio [2]	Substance	other results
–	IASGEPTSTPTTE [IE-13]	Hydrolysis of synthetic peptide by ACE (result in words) [1]: avoid ACE’s hydrolysis
0.12	FPQYLQY [FPQYLQY]	–
–	LYQGPIVL [LYQGPIVL]	Hydrolysis of synthetic peptide by ACE (result in words) [1]: survive from ACE’s hydrolysis
0.44	AVPYPQR [AVPYPQR]	–
0.33	INNQFLPYPYY [INNQFLPYPYY]	–
0.84	ALNEINQFY [ALNEINQFY]	–
0.76	YPVEPFTESQSL [YPVEPFTESQSL]	–
0.15	ALPMHIR [ALPMHIR]	–
–	LVYPFPGPLHNSL [LVYPFPGPLHNSL]	Hydrolysis of synthetic peptide by ACE (result in words) [1]: readily hydrolyzed by ACE
0.65	LRPVAAEIY [LRPVAAEIY]	–
0.18	SIVHPSY [SIVHPSY]	–
0.94	FALPQYLK [FALPQYLK]	–
0.47	IPPLTQT [IPPLTQT]	–
0.21	MFPPQSVL [MFPPQSVL]	–
–	VRSPAQILQ [VRSPAQILQ]	Hydrolysis of synthetic peptide by ACE (result in words) [1]: survive from ACE’s hydrolysis
0.83	VAPFPEVFG [VAPFPEVFG]	–
0.66	KVIPYVRY [KVIPYVRY]	–

D/H Ratio [2]	Substance	other results
0.61	NAVPITPTLNR [NAVPITPTLNR]	–
–	NIPPLTQTPV [NV-10]	Hydrolysis of synthetic peptide by ACE (result in words) [1]: avoid ACE’s hydrolysis
0.65	SAYPGQITSN [SAYPGQITSN]	–
–	LVYPFPGPIHN [LVYPFPGPIHN]	Hydrolysis of synthetic peptide by ACE (result in words) [1]: retard the second cleavage
–	DRVYIHPFHL [Ang-I, angiotensin I, reference compound]	Hydrolysis of Ang-I by ACE without exogenous substrates [3]: hydrolyzed almost completely
0.56	QVSLNSGY [QVSLNSGY]	–
0.80	VVPPFLQPEVM [VVPPFLQPEVM]	–
0.55	DMPIQAF [DMPIQAF]	–
0.81	SRYPSYGLN [SRYPSYGLN]	–
0.47	QLDAYPSGAW [QLDAYPSGAW]	–
0.40	HQPHQPLPPTVM [HQPHQPLPPTVM]	–
–	CRQNTLGHNTQTSIAQ	peptide loss on incubation with ACE [4]: 7%
0.76	HQGLPQEVLNENLLR [HQGLPQEVLNENLLR]	–
0.15	TTMPLW [TTMPLW]	–
0.15	HPHPHLSF [HPHPHLSF]	–
0.59	DMPIQAFL [DMPIQAFL]	–
